Assays:
pAKT in 786-O cells = experiment: pAKT status DM50, 786-O; type: cell-based; conditions: Homo sapiens, 786-0, renal cell carcinoma
Protocol: PC3 cells were obtained from the American Type Culture Collection (ATCC, Manassas, Va., Cat.# CRL-1435). Two million cells from the prostate cancer line PC3 were placed into 6 cm culture dishes and allowed to grow in complete RPMI 1640 media (Invitrogen, Carlsbad, Calif., Cat.#22400-105) with 10% fetal bovine serum (Invitrogen, Carlsbad, Calif., Cat.#10438-026). After this time period the cells were serum starved for 5 hours followed by application of the test compound. Test compound was added as a DMSO (dimethyl sulfoxide) solution such that the final DMSO concentration in the cell media was less than or equal to 0.2% by volume After 30 minutes of exposure the growth factor stimulant, human IGF-1 (PeproTech, Inc., Rocky Hill, N.J., Cat.#100-11), was added to a final concentration of 0.1 μg/ml in each well. After 30 minutes of IGF-1 exposure, cells were removed from the media and cell lysates were prepared using RIPA Lysis buffer (Upstate, Lake Placid, N.Y., Cat.#20-188), keeping on ice. The pAKT serine 473 level was measured in duplicate samples of the cell lysates using commercially available assays such as the Pathscan® Sandwich ELISA kit for Ser473 pAKT (Cell Signaling, Danvers, Mass., Cat.#7160). A SpectraMax Plus spectrophotometric plate reader (Molecular Devices, Sunnydale, Calif.) was used to measure the optical density signal for pAKT at 450 nm (OD450 nm). The pAKT OD450 nm readings were normalized by total protein amount in the cell lysates determined by standard methods.
Concentrations of test compounds required to inhibit IGF stimulated pAKT levels to 50% of maximum levels in PC3 cells (termed DM50 for decreased maximum 50%) were calculated by inputting the dose responses in the software package GraphPad Prism4 (GraphPad Software, Inc., San Diego, Calif.).
Several other cancer cell lines were obtained from ATCC and grown according to the supplier's recommendations and treated with test compounds. DM50 values listed in Table 6 below were obtained by the methods described in Example A: […]

LNCaP cells = experiment: Oxidative stress of prostate cancer cells (8-iso-Prostaglandin F2α ELISA); type: cell-based; conditions: for OD450 nm reading / 8-iso-Prostaglandin F2α generated: 20 μM; for 8-iso-Prostaglandin F2α generated: control 1.5 μg/mL
Protocol: LNCaP cells were obtained from the American Type Culture Collection (ATCC, Manassas, Va., Cat.# CRL-1740). 3.5 million cells from the prostate cancer line LNCaP were placed into each of three 10 cm culture dishes and allowed to grow overnight in complete RPMI 1640 media (Invitrogen, Carlsbad, Calif., Cat.#22400-105) with 10% fetal bovine serum (Invitrogen, Carlsbad, Calif., Cat#10438-026). Test compound was added into the dishes to the concentration of 0 and 20 μM and allowed to incubate at 37° C. in a 5% CO2 atmosphere for 2 and 24 hours. Following this the pH of the cell culture media was adjusted down to 3.5 with 2M HCl. After sitting at 4° C. for 15 minutes, the cell culture media from each culture dishes was applied to each of three C18 reverse phase columns (Biotage ISOLUTE, Part #220-0020-B, Lot #5223506B2A, www.biotage.com) which were prewashed with 10 mL/column of ethanol followed by 10 mL/column of deionized water. The loaded columns were then washed with 10 mL/column of water, followed by 10 mL/column of 15% ethanol, and finally 10 mL/column hexane. The desired samples were then eluted from the columns by addition of 10 mL/column ethyl acetate. The ethyl acetate was then evaporated to dryness using a rotating evaporator. Each sample was then dissolved in 500 μL of Assay Buffer provided in BioMol's Isoprostane Oxidative Stress Assay Kit A (Cat. # AK150-0001, Lot #3-08010825). Using the kit reagents according to the manufacturer's instructions the oxidative product 8-iso-Prostaglandin F2α was quantitated by ELISA. Also, using reagents from the kit a standard curve of oxidation product (8-iso-Prostaglandin F2α) versus optical density reading at 450 nm. From this curve optical density readings from the test samples were converted to μg/mL of the oxidation marker 8-iso-Prostaglandin F2α. This kit from BioMol is designed to determine the amount of the 8-iso-Prostaglandin F2α produced as a marker for the amount of oxidative stress experienced by the cells.

[1] = tested on: 786-0 renal cell carcinoma xenograft; experiment: 786-0 renal cell carcinoma xenograft mouse model; type: in vivo, nude mice; conditions: ip, 3×/wk for 4 weeks
Protocol: To determine if Cpd 9 has anti-tumor effects, an in vivo study was conducted in a 786-0 renal cell carcinoma xenograft model, 786-0 cells (2×10^6) were inoculated subcutaneously into nude mice in the flank area and tumor growth was monitored with calipers via external measurements. Tumor volume was calculated using the formula volume=(length×width^2)/2. When the average tumor volume reached 400 mm^3, mice were randomly divided into 2 groups and treated with either DMSO (control) or Cpd 9 (25 mg/kg, ip) three times weekly (M, W, F) for two weeks.
To determine if Cpd 28 has anti-tumor effects, an in vivo study was conducted in a 786-0 renal cell carcinoma xenograft model, 786-0 cells (2×10^6) were inoculated subcutaneously into nude mice in the flank area and tumor growth was monitored with calipers via external measurements. Tumor volume was calculated using the formula volume=(length×width^2)/2. Treatment was started when tumors reached an average volume of 300 mm^3. […] DMSO was used as control since this was the vehicle the compounds were dissolved in. Tumor size was monitored twice weekly and body weight was monitored once weekly. Means and standard deviations were calculated and the Student t test method was used for statistical comparisons.

MCF7 breast cancer cells = experiment: Mammosphere cancer stem cell inhibition assay; type: cell-based; conditions: first experiment; for number of mammospheres: control 38±4
Protocol: A mammosphere cancer stem cell inhibition assay was set up using literature methods (T. M. Phillips et al. J. Natl. Cancer I. 2006, 98, 1777-1785, “Mammalian target of rapamycin contributes to the acquired apoptotic resistance of human mesothelioma multicellular spheroids”) using a subset of MCF7 breast cancer cells that posses the ability to evade anchorage independent apoptosis. Commercially available MCF7 breast cancer cells were cultured in MEM supplemented with 0.01 mg/mL of bovine insulin and 10% FBS at 37° C. in humidified atmosphere (5% CO2). Floating cells in the 2-day cultures were collected, washed, and resuspended in DMEM-F12 (50:50) supplemented with 0.4% BSA, 5 μg/mL bovine insulin, 20 ng/mL bFGF, and 10 ng/mL EGF. Cells were then passed through a […] sieve to remove any cell clusters and adjusted to a density of 10,000 cells/mL. Approximately 500 cells were plated in quadruplicate in a sterile poly-HEMA-treated 96-well plate. Cells were then treated with either control or test solutions consisting of the kinase inhibitor Lapatinib (1 μM), Cpd 28 (1 or 10 μM), Cpd 55 (1 or 10 μM), The numbers of mammospheres (clusters of cells numbering more than 4 or 5 per cluster) were then counted after 5-7 days.

Structure (SMILES): O=c1cc(N2CCOCC2)oc2c(-c3ccc4c(c3)OCCO4)csc12 [Compound 28, 3-(2,3-dihydrobenzo[b][1,4]dioxin-6-yl)-5-morpholino-7H-thieno[3,2-b]pyran-7-one]
- IC50 (pAKT in 786-O cells): 1.37 µM
- OD450 nm reading (LNCaP cells; 2 hours exposure): 1.01 units
- 8-iso-Prostaglandin F2α generated (LNCaP cells; 2 hours): 18.0 µg/mL
- OD450 nm reading (LNCaP cells; 24 hours exposure): 0.96 units
- 8-iso-Prostaglandin F2α generated (LNCaP cells; 24 hours): 21.0 µg/mL
- increase of oxidation marker 8-iso-Prostaglandin F2α relative to untreated controls (LNCaP cells; 2 hours): 12 fold
- increase of oxidation marker 8-iso-Prostaglandin F2α relative to untreated controls (LNCaP cells; 24 hours): 14 fold
- tumor growth inhibition compared to control ([1]; 25 mg/kg): 70%
- body weight change or other abnormalities ([1]; 50 mg/kg): no significant body weight change or other abnormalities noted
- tumor growth inhibition compared to control ([1]; 50 mg/kg): 81%
- inhibition of mammosphere production versus control (MCF7 breast cancer cells; 1 μM): approximately 60%
- number of mammospheres (MCF7 breast cancer cells; 1 μM): 15±2 mammospheres
- inhibition of mammosphere production versus control (MCF7 breast cancer cells; 10 μM): approximately 88%
- number of mammospheres (MCF7 breast cancer cells; 10 μM): 5±1 mammospheres

— US9981983B2, “Thienopyranones as kinase inhibitors” (SignalRx Pharmaceuticals, Inc., priority 2008, dated 2018)
